Assay: Estimation of residue content in Solvent Blue 67 dye by filtration of the dye solution in organic solvent
Format: physicochemical
Description: For the preparation of Solvent Blue 67, chlorosulfonation is carried out in a vessel by reacting chlorosulfonic acid with 300 g of crude copper phthalocyanine blue (CPC) in presence of acid chloride followed by the process of drowning, filtration, homogenization, condensation, clarification, filtration, spin flash drying, airclassifying and sieving to retrieve the final product. The final product obtained is 560 g to 600 g of Solvent Blue 67 with purity 100%+5% coloristic value. Further, the estimation of residue content is determined by filtration process of prepared Solvent Blue 67 dye using organic solvent and the weight of residue is calculated.
An adequate quantity of Solvent Blue 67 of about 20 g to 60 g is dissolved in 50 ml to 150 ml of alkyl ester (or alkyl ketonic organic solvent) based on end process in a glass beaker. […]
The resultant dye solution is filtered through a filtration assembly. […] The residue left in the beaker is quantitatively transferred to the filter using 20 ml to 30 ml of alkyl ester (or alkyl ketonic organic solvent) and the filtrate is further washed with 15 to 25 ml of the same solvent to make it colour free. […] The weight of residue is calculated as weights of before and after filtration and expressed in PPM. […]

residue content (Example 1, after clarification 225 (circulated in filter of 10 to 100 mesh up to 24 hrs), cake dried): below 40 PPM
Substance: Solvent Blue 67
presence of residue (FIGS. 2a and 2b) (dye dissolved in alkyl ester or alkyl ketonic organic solvent, filtered through 20 to 50 micron stainless-steel mesh): does not show presence of any amount of residue

— patent publication US20260242606A1, “PROCESS OF PREPARATION OF RESIDUE FREE SOLVENT BLUE 67 DYE” (RATHI DYE CHEM (P) LTD, priority 2023, published 2026)
